Source: the NIST ThermoML archive (doi:10.1021/je7003758)

Test: xn = mol fraction of the nth substance listed
Conditions: 298.15 K, Liquid

ClCCCl [1,2-dichloroethane] + CN1CCCC1=O
mass density [kg/m3]
Conditions	x2 = 0.0993	x2 = 0.2025	x2 = 0.3012	x2 = 0.4029	x2 = 0.4975	x2 = 0.5832	x2 = 0.7037	x2 = 0.7984	x2 = 0.9029
100 kPa	1220.4	1195.3	1172.3	1149.2	1128.3	1110	1085.1	1066.3	1046.2
500 kPa	1220.7	1195.6	1172.6	1149.4	1128.5	1110.2	1085.4	1066.5	1046.5
1000 kPa	1221.2	1196	1173	1149.8	1128.9	1110.5	1085.7	1066.8	1046.7
1500 kPa	1221.7	1196.5	1173.4	1150.2	1129.2	1110.9	1086	1067.1	1047
2000 kPa	1222.1	1196.9	1173.7	1150.6	1129.6	1111.2	1086.3	1067.4	1047.3
2500 kPa	1222.6	1197.3	1174.2	1150.9	1129.9	1111.5	1086.6	1067.7	1047.6
2900 kPa	–	–	1174.5	–	–	–	–	–	–
3000 kPa	1223	1197.7	–	1151.3	1130.3	1111.9	1086.9	1068	1047.8
3400 kPa	–	–	–	1151.6	–	–	–	–	–
3500 kPa	1223.5	1198.1	1174.9	–	1130.6	–	1087.2	1068.3	1048.1
3600 kPa	–	–	–	–	–	1112.2	–	–	–
4000 kPa	1223.9	1198.5	1175.3	1152	1131	1112.5	1087.6	1068.6	1048.4
4500 kPa	1224.4	1198.9	1175.7	–	1131.3	1112.8	1087.8	1068.8	1048.6
4600 kPa	–	–	–	1152.3	–	–	–	–	–
5000 kPa	1224.8	1199.3	1176.1	1152.8	1131.6	1113.2	1088.1	1069.1	1048.9
5500 kPa	1225.2	1199.8	1176.5	1153.1	1131.9	1113.5	1088.4	1069.4	1049.2
6000 kPa	1225.7	1200.2	1176.9	1153.5	1132.4	1113.8	1088.7	1069.7	1049.4
6500 kPa	1226.1	1200.6	1177.2	1153.9	1132.7	1114.1	1089	1070	1049.7
6900 kPa	–	–	–	–	–	1114.4	–	–	–
7000 kPa	1226.5	1201	1177.6	1154.2	1133	–	1089.3	1070.3	1050
7500 kPa	1227	1201.4	1178	1154.6	1133.3	1114.8	1089.6	1070.5	1050.2
7900 kPa	–	–	–	–	1133.7	–	–	–	–
8000 kPa	1227.4	1201.8	1178.4	1154.9	–	1115	1089.9	1070.9	1050.6
8500 kPa	1227.8	1202.2	1178.8	1155.3	1134.1	1115.4	1090.2	1071.1	1050.8
8900 kPa	–	1202.6	–	–	–	–	–	–	–
9000 kPa	1228.2	–	1179.2	1155.6	1134.4	1115.7	1090.5	1071.3	1051.1
9500 kPa	1228.6	1203.1	1179.6	1156	1134.7	1116	1090.8	1071.6	1051.3
9900 kPa	–	–	1180	–	1135	–	–	–	–
10000 kPa	1229.2	1203.6	–	–	–	–	–	–	–
